# Measurements from patent US20090082429A1, “Antimicrobial Compositions and Methods of Use” (priority 2003, published 2009).
# “Also recorded” adds a separate entry of the source. Read-outs that look alike come from different tables or passages of the source.
# Experiments:
# staphylococcal = conditions: stated or reported, no test in the patent; cited from earlier work
# S. aureus BB568 = test: Minimum inhibitory concentration (MIC) testing in 96-well microtitre trays; type: cell-based
# Source text: (§1) Reagents and bacterial strains: 3-O-(−)-epicatechingallate and (+)-catechin were provided by the Tokyo Food Techno Co., Tokyo, Japan. Octanoic acid and oxacillin were purchased from Sigma (Poole, United Kingdom). The acyl-(+)-catechin derivatives and octanoyl-(−)-epicatechin were synthesised as outlined below. S. aureus BB568 (COL-type strain that carries mecA and pT181) and BB551 (methicillin-sensitive) were provided by Professor B. Berger-Baechi. EMRSA-15 and EMRSA-16 were clinical isolates from the Royal Free Hospital, London. Strains of S. aureus can be considered resistant to methicillin in which growth occurs in the presence of 8 microgram/ml methicillin (National Committee for Clinical Laboratory Standards, 1990—Methods for dilution antimicrobial susceptibility tests for bacteria that grow aerobically (second edition). Document M7-A2. NCCLS, Villanova, Pa., U.S.A.).
# (§2) S. aureus ATCC29213 was used as the standard.
# EMRSA-15 = test: as above; type: cell-based, S. aureus
# Source text: as §1, §2
# EMRSA-16 [1] = test: as above; type: cell-based, S. aureus
# Source text: as §1, §2
# S. aureus = test: MIC testing, summary over the three strains tested; type: cell-based
# Source text: as §1, §2
# EMRSA-16 [2] = test: Effect on bacterial growth (viable counts, CFU/ml); type: cell-based, S. aureus; conditions: for reduction in cell numbers: over six hours
# Protocol: Effect on bacterial growth: EMRSA-16 was grown overnight in Mueller-Hinton broth at 37° C. The overnight culture as diluted 1:400 into 50 ml volumes of pre-warmed (37° C.) Mueller-Hinton broth containing various concentrations of contemplated compounds. The control flask contained ethanol (1 vol %). The flasks were incubated at 37° C. with aeration (200 rpm). At two-hour intervals samples were withdrawn from the flasks, serially diluted in 0.1M phosphate-buffered saline (pH 7.4) solutions, and plated onto nutrient agar (Oxoid). The number of colonies was recorded at 24 h incubation at 37° C. and expressed as the number of CFU/ml.
# EMRSA-16 [3] = test: Bacterial membrane damage (BacLight kit, SYTO 9/propidium iodide) and CFU after 10 min exposure; type: cell-based, S. aureus; conditions: for Membrane Effect % Control (BacLight) / Delta Log 10 (CFU/ml): 10 min exposure; for Delta Log 10 (CFU/ml): Log10 decrease vs control
# Protocol: Bacterial membrane damage: EMRSA-16 was grown overnight in Mueller-Hinton broth at 37° C. The overnight culture was diluted 1:40 into fresh pre-warmed Mueller-Hinton broth and the diluted culture incubated at 37° C., with aeration (200 rpm), until the optical density at 600 nm (OD600) reached 0.7-0.8. The cells were recovered by centrifugation (10.000×g for 10 min), washed once with filtered-sterilized water, and resuspended to 1:10 the original volume in filter-sterilized water. The culture was further diluted 1:20 into water containing ethanol (1 vol %; the solvent was used to dissolve the compounds) or water containing the catechin. The cells were exposed to the compounds for 10 min (at room temperature and gentle shaking), after which a sample was removed for CFU determination and the remainder of the cells were recovered by centrifugation (10.000×g for 10 min). The cell pellet was washed once with water and then resuspended to an OD670 of 0.15.
# Damage to the bacterial cytoplasmic membrane was determined with the reagents (SYTO 9 and propidium iodide) contained in the BacLight kit from Molecular Probes Europe BV (Leiden, The Netherlands). An equal mixture (4.5 microliter each) of SYTO 9 dye and propidium iodide was added to 3 ml of sample in a cuvette and the sample mixed by inversion of the cuvette three times. The sample was maintained in the dark for 15 min and the fluorescence of the two dyes was determined with a spectrofluorometer (Jacso FP-750). Both dyes were excited with a wavelength of 485 nm and the emission of SYTO 9 was read at 530 nm (Em1) and propidium iodide was read at 645 nm (Em2). The ratio of SYTO 9 to propidium iodide emissions (R=Em1/Em2) was expressed as a percentage of the control (BacLight value=[Rsample/Rcontrol]×100). The sample removed for CFU determination was serially diluted in 0.1M phosphate-buffered saline (pH 7.4) then plated onto nutrient agar. The number of colonies on the plates was recorded after 24 h incubation at 37° C. and the results expressed as a Log10 decrease in CFU/ml compared to the control sample.
# Staphylococcal membrane damage: Damage to the staphylococcal cytoplasmic membrane was assessed by use of the BacLight kit (Molecular Probes Inc.). The kit makes use of two nucleic acid stains, SYTO-9 and propidium iodide, with different spectral properties and abilities to penetrate intact bacterial membranes. SYTO-9 penetrates both intact and damaged membranes while propidium iodide only penetrates damaged membranes. Cells with intact membranes stain fluorescent green while cells with damaged membranes stain fluorescent red. The ratios of green to red fluorescence, for EMRSA-16 exposed to test compounds, are expressed as a percentage of the control and are given in the table below.
# [4] = tested on: Erythrocytes from defibrinated Horse blood; test: Erythrocyte haemolysis; type: cell-based; conditions: 10 min
# Protocol: Erythrocyte haemolysis: Erythrocytes from defibrinated Horse blood (Oxoid) were collected by centrifugation (6,000×g, 3 min) and washed three to four times in 10 mM Tris-HCI (pH 7.4) containing 0.9% NaCI. The erythrocytes were resuspended to 1% in the wash buffer and 200 microliter of cells was added to 1300 microliter of buffer containing the test compound. The sample was mixed gently for 10 min at room temperature and the intact erythrocytes were removed by centrifugation (6,000×g, 3 min). Haemolysis was evaluated by measuring the absorbance of the supernatant at 540 nm. Cells were added to buffer containing 0.5% NH4OH to give an indication of 100% lysis. The results were expressed as a percentage of absorbance reading for 100% lysis. Buffer containing only washed erythrocytes was used to assess the extent of lysis in the absence of the test compound.
# Hemolysis: The amount hemoglobin released from horse blood erythrocytes after exposure to the compounds for 10 min was used to assess the effect of the compounds on eukaryotic membranes.
# S. aureus BB551 = test: Electron microscopy, effect on cell wall morphology; type: cell-based; conditions: grown overnight in the presence of the compound; electron micrograph
# Protocol: Electron microscopy: S. aureus BB551 was grown overnight at 37° C. in Mueller-Hinton broth in the absence and presence of either epicatechin-(−)-gallate or octanoyl-(+)-catechin. The cells were recovered by centrifugation and washed once in 0.1M phosphate-buffered saline, pH 7.4. Cells were fixed in 1.5% glutaraldehyde for at least 2 h at room temperature, treated with osmium tetroxide and embedded in epoxy resin. Sectioning and staining with uranyl acetate was followed by Reynolds' lead citrate. The ultrathin sections were viewed and photographed using a Philips 201 transmission electron microscope.
# [5] = BB568; MIC of the compound itself; 35° C., 24 h
# [6] = BB568; oxacillin MIC in the presence of the compound (tested at 0.25×MIC)
# [7] = EMRSA-15; MIC of the compound itself; 35° C., 24 h
# [8] = EMRSA-15; oxacillin MIC in the presence of the compound (tested at 0.25×MIC)
# [9] = EMRSA-16; MIC of the compound itself; 35° C., 24 h
# [10] = EMRSA-16; oxacillin MIC in the presence of the compound (tested at 0.25×MIC)
# [11] = Staphylococcus aureus, 24 h, read-out: MIC Catechin
# [12] = Staphylococcus aureus, 24 h; read-out: MIC Catechin
structure (smiles),measurement,setting,value
"CCCCCCCCCC=CCCCCC(=O)O (single isomer, unassigned) [palmitoleic acid isomer (C16:1delta6)]",anti-staphylococcal activity,staphylococcal,anti-staphylococcal activity
"CCCCCCCCCCCCCCCCCC(=O)O[C@H]1Cc2c(O)cc(O)cc2O[C@@H]1c1ccc(O)c(O)c1 [3-O-staeoryl-(+)-catechin, 3-O-stearoyl-(+)-catechin]",MIC Catechin,S. aureus BB568; [5],32 MICROGRAM/ML
same,MIC Oxacillin,S. aureus BB568; [6],256 MICROGRAM/ML
same,MIC Catechin,EMRSA-15; [7],>32 MICROGRAM/ML
same,MIC Oxacillin,EMRSA-15; [8],32 MICROGRAM/ML
same,MIC Catechin,EMRSA-16 [1]; [9],>32 MICROGRAM/ML
same,MIC Oxacillin,EMRSA-16 [1]; [10],512 MICROGRAM/ML
Oc1cc(O)c2c(c1)O[C@H](c1ccc(O)c(O)c1)[C@@H](O)C2 [(+)-catechin],MIC Catechin,S. aureus BB568; [5],>256 MICROGRAM/ML
same,MIC Oxacillin,S. aureus BB568; [6],256 MICROGRAM/ML
same,MIC Catechin,EMRSA-15; [7],>256 MICROGRAM/ML
same,MIC Oxacillin,EMRSA-15; [8],32 MICROGRAM/ML
same,MIC Catechin,EMRSA-16 [1]; [9],>256 MICROGRAM/ML
same,MIC Oxacillin,EMRSA-16 [1]; [10],512 MICROGRAM/ML
same,MIC,S. aureus; the three strains tested,> 256 microgram/ml
"O=C(O[C@@H]1Cc2c(O)cc(O)cc2O[C@@H]1c1ccc(O)c(O)c1)c1cc(O)c(O)c(O)c1 [(−)-epicatechingallate, 3-O-(−)-epicatechingallate]",MIC Oxacillin,S. aureus BB568; [6],<1 MICROGRAM/ML
same,MIC Oxacillin,S. aureus BB568; BB568; oxacillin MIC in the presence of the compound (tested at 0.25×MIC); listed as epicatechin gallate,less than 1 MICROGRAM/ML
same,MIC,"S. aureus BB568; Staphylococcus aureus, BB568, 24 h, read-out: MIC Catechin",128 µg/mL
same,MIC Oxacillin,EMRSA-15; [8],1 MICROGRAM/ML
same,MIC,EMRSA-15; [11],128 µg/mL
same,MIC Oxacillin,EMRSA-16 [1]; [10],1 MICROGRAM/ML
same,MIC,EMRSA-16 [1]; [11],128 µg/mL
same,MIC,S. aureus; Staphylococcus aureus,64 to 128 µg/mL
same,direct antistaphylococcal activity relative to (+)-catechin,S. aureus; greater activity than (+)-catechin,at least 4 fold
same,reduction in cell numbers,EMRSA-16 [2]; 512 microgram/ml,0.3 Log10
same,reduction in cell numbers,EMRSA-16 [2]; 1024 microgram/ml,0.85 Log10
same,reduction in CFU/ml,"EMRSA-16 [2]; 1024 microgram/ml, over the 24 h period",5 Log10
same,reduction in viable cell numbers,"EMRSA-16 [2]; over the first two hour period, even at 8×MIC",did not give rise to a large reduction in viable cell numbers
same,effect on cell viability,"EMRSA-16 [3]; 4× and 8×MIC, 10 min",little effect on cell viability
same,membrane permeability,EMRSA-16 [3]; 4×MIC,48%
same,membrane permeability,EMRSA-16 [3]; 8×MIC,64%
same,Membrane Effect % Control (BacLight),EMRSA-16 [3]; 512 mcg/ml,48%
same,Delta Log 10 (CFU/ml),EMRSA-16 [3]; 512 mcg/ml,0.0
same,Membrane Effect % Control (BacLight),EMRSA-16 [3]; 1024 mcg/ml,64%
same,Delta Log 10 (CFU/ml),EMRSA-16 [3]; 1024 mcg/ml,0.1
same,hemolysis,[4]; 4×MIC,did not give rise to hemolysis
same,hemolysis,[4]; 8×MIC,21%
same,% Hemolysis,[4]; 512 mcg/ml,6%
same,% Hemolysis,[4]; 1024 mcg/ml,21%
same,effect on cell wall morphology,S. aureus BB551,pseudomulticellular aggregates with increased cell wall thickening
O=C(O)c1cc(O)c(O)c(O)c1 [Gallic acid],anti-staphylococcal activity,staphylococcal,no anti-staphylococcal activity
CCCCCCCC(=O)O [Octanoic acid],MIC Oxacillin,S. aureus BB568; [6],256 MICROGRAM/ML
same,MIC,"S. aureus BB568; Staphylococcus aureus, BB568, 24 h; read-out: MIC Catechin",1020 µg/mL
same,MIC Oxacillin,EMRSA-15; [8],32 MICROGRAM/ML
same,MIC,EMRSA-15; [12],1020 µg/mL
same,MIC Oxacillin,EMRSA-16 [1]; [10],512 MICROGRAM/ML
same,MIC,EMRSA-16 [1]; [12],1020 µg/mL
same,direct activity against S. aureus,S. aureus; result in words,no direct activity; also recorded: not active
same,capacity to reduce the oxacillin MIC,S. aureus; tested at 0.25×MIC,two-fold
same,concentration giving significant membrane damage,EMRSA-16 [3],> 1024 microgram/ml
same,Membrane Effect % Control (BacLight),EMRSA-16 [3]; 16 mcg/ml,74%
same,Delta Log 10 (CFU/ml),EMRSA-16 [3]; 16 mcg/ml,−0.1
same,Membrane Effect % Control (BacLight),EMRSA-16 [3]; 32 mcg/ml,75%
same,Delta Log 10 (CFU/ml),EMRSA-16 [3]; 32 mcg/ml,0.1
same,Membrane Effect % Control (BacLight),EMRSA-16 [3]; 64 mcg/ml,2%
same,Delta Log 10 (CFU/ml),EMRSA-16 [3]; 64 mcg/ml,>7.0
same,hemolysis,[4]; 2×MIC,complete hemolysis
same,% Hemolysis,"[4]; horse, 16 mcg/ml, pH 7.4",3%
same,% Hemolysis,"[4]; horse, 32 mcg/ml, pH 7.4",4%
same,% Hemolysis,"[4]; horse, 64 mcg/ml, pH 7.4",100%
"Cc1onc(-c2ccccc2)c1C(=O)N[C@@H]1C(=O)N2[C@@H]1SC(C)(C)[C@@H]2C(=O)O [Oxacillin, oxacillin]",MIC,S. aureus BB568; Staphylococcus aureus; BB568; oxacillin alone; read-out: MIC Oxacillin,256 µg/mL
same,MIC,EMRSA-15; Staphylococcus aureus; EMRSA-15; oxacillin alone; read-out: MIC Oxacillin,32 µg/mL
same,MIC,EMRSA-16 [1]; Staphylococcus aureus; EMRSA-16; oxacillin alone; read-out: MIC Oxacillin,512 µg/mL
"CCCCCCCCCCCC(=O)O [dedecanoic acid, dedecanoic acid (lauric acid) (C12:0)]",anti-staphylococcal activity,staphylococcal,anti-staphylococcal activity
"CCCCC/C=C\C/C=C\CCCCCCCC(=O)O [linoleic acid, linoleic acid (C18:8)]",anti-staphylococcal activity,staphylococcal,anti-staphylococcal activity
